Reference: patent publication US9212146B2, “Substituted pyridazinones for the treatment of tumors” (SHANGHAI INSTITUTE OF MATERIA MEDICA, CHINESE ACADEMY OF …, priority 2008, dated 2015)
Read-outs that look alike come from different tables or passages of the source.

System: human hepatoma cell line Bel-7402
Experiment: SRB proliferation assay, Bel-7402
Format: cell-based
Conditions: BEL-7402 cultivated in vitro, given as bounds, read-out: The Inhibition Activities for Human Liver Cancer Cells BEL-7402 (IC50)
Method: Protocol: the antineoplasmic activities in vitro of the compounds were assayed by a Sulforhodamine B (SRB) protocol. Tumor cells were cultivated at 37 under 5% CO2 in a RPMI 1640 medium or a DMEM medium (Gibco) containing 10% fetal bovine serum. Tumor cells were inoculated on a 96-well plate with a concentration of 0.4-1.0×10^4 cells per well according to the cell types. 24 hours later, the target compounds diluted 10 times were added, each compound having at least 5 concentrations. After treated by the compounds for 72 hours, the culture media were discarded, and the cells were fixed by 10% cold trichloroacetic acid, and then stained by Sulforhodamine B (SRB) solution. The uncombined SRB was washed off, and the SRB combined with protein was dissolved with Tris. OD values were recorded at 515 nm on an ELISA Reader, and the cell growth inhibition rate was calculated according to following equation: Inhibition rate=(ODcontrol−ODexperimental)/ODcontrol×100%
IC50 (50% inhibitory concentration) was calculated by using Logit method based on the inhibition rates at various concentration, and the results are shown in tables 1 and 2.
The following cell lines were used: human hepatocarcinoma cell line […]; ovarian cancer cell line SK-OV-3; human breast cancer cell line MDA-MB-231; human renal carcinoma cell line A498; colon adenocarcinoma cell line HT-29; non-small cell lung cancer cell line NCI-H460; lung adenocarcinoma cell line A549; human colon cancer cell line SW-620; human hepatoma cell line Bel-7402; human breast carcinoma cell line SK-BR-3; and human umbilical vein endothelial cells (HUVEC).

Structure (SMILES) | IC50 (Homo sapiens, Bel-7402, 72 h) [nM] | further results
CN(C)c1ccc(-c2ccc(=O)[nH]n2)cc1C(F)(F)F [YHHU-647] | < 10 | –
CC1CCC(C(C)C)C(Oc2ccc(-c3ccc(=O)[nH]n3)cc2C(F)(F)F)C1 (stereo not shown) [YHHU-595] | < 100 | –
O=c1ccc(-c2ccc(OCCN3CCOCC3)c(C(F)(F)F)c2)n[nH]1 [YHHU-775] | < 100 | –
O=c1ccc(-c2ccc(SCCO)c(C(F)(F)F)c2)n[nH]1 [YHHU-700] | < 10000 | –
O=c1ccc(-c2ccc(NC3CCCC3)c(C(F)(F)F)c2)n[nH]1 [YHHU-689] | < 100 | –
CN(CCO)c1ccc(-c2ccc(=O)[nH]n2)cc1C(F)(F)F [YHHU-681] | < 1000 | –
O=c1ccc(-c2ccc(N3CCCCCC3)c(C(F)(F)F)c2)n[nH]1 [YHHU-747] | < 10 | –
O=C1CSC(=O)N1c1ccc(-c2ccc(=O)[nH]n2)cc1C(F)(F)F [YHHU-674] | < 1000 | –
O=c1ccc(-c2ccc(OCCN3CCCC3)c(C(F)(F)F)c2)n[nH]1 [YHHU-770] | < 100 | –
O=c1ccc(-c2ccc(-c3ccccc3)c(C(F)(F)F)c2)n[nH]1 [YHHU-703] | < 10000 | –
CCC(C)(C)Oc1ccc(-c2ccc(=O)[nH]n2)cc1C(F)(F)F [YHHU-773] | < 100 | –
Cc1ccc(Sc2ccc(-c3ccc(=O)[nH]n3)cc2C(F)(F)F)cc1 [YHHU-717] | > 1000 | –
O=c1ccc(-c2ccc(OC3CCCCCC3)c(C(F)(F)F)c2)n[nH]1 [YHHU-598] | < 100 | –
O=c1ccc(-c2ccc(N3CC4CCCC4C3)c(C(F)(F)F)c2)n[nH]1 (stereo not shown) [YHHU-718] | < 10000 | –
O=c1ccc(-c2ccc(N3CCC(CCO)CC3)c(C(F)(F)F)c2)n[nH]1 [YHHU-679] | < 100 | –
O=c1ccc(-c2ccc(-c3cccnc3)c(C(F)(F)F)c2)n[nH]1 [YHHU-709] | < 10000 | –
CSc1ccc(-c2ccc(=O)[nH]n2)cc1C(F)(F)F [YHHU-694] | < 100 | –
O=c1ccc(-c2ccc(OCc3ccccc3)c(C(F)(F)F)c2)n[nH]1 [YHHU-714] | < 10000 | –
O=c1ccc(-c2ccc(NCC3CCCCC3)c(C(F)(F)F)c2)n[nH]1 [YHHU-696] | < 100 | –
O=c1ccc(-c2ccc(N3CCCCC3CO)c(C(F)(F)F)c2)n[nH]1 (stereo not shown) [YHHU-763] | < 100 | –
O=c1ccc(-c2ccc(NC3CCCC(O)C3)c(C(F)(F)F)c2)n[nH]1 (stereo not shown) [YHHU-712] | < 1000 | –
O=C(O)[C@@H]1CC(O)CN1c1ccc(-c2ccc(=O)[nH]n2)cc1C(F)(F)F (stereo partly shown) [YHHU-666] | < 1000 | –
O=c1ccc(-c2ccc(OCCBr)c(C(F)(F)F)c2)n[nH]1 [YHHU-579] | < 100 | –
CC1CN1c1ccc(-c2ccc(=O)[nH]n2)cc1C(F)(F)F (stereo not shown) [YHHU-748] | – | IC50 (Homo sapiens, 72 hours): < 10 nM
CN(C)Cc1ccc(-c2ccc(=O)[nH]n2)cc1C(F)(F)F [YHHU-701] | < 10 | –

Structure (SMILES) | IC50 (Homo sapiens, Bel-7402, 72 h) [nM] | further results
CC(C)Nc1ccc(-c2ccc(=O)[nH]n2)cc1C(F)(F)F [YHHU-761] | < 10 | –
O=c1ccc(-c2ccc(Nc3ccccc3)c(C(F)(F)F)c2)n[nH]1 [YHHU-658] | < 100 | –
O=c1ccc(-c2ccc(N3CCNCC3)c(C(F)(F)F)c2)n[nH]1 [YHHU-677] | < 100 | –
CC(C)C(Oc1ccc(-c2ccc(=O)[nH]n2)cc1C(F)(F)F)C(C)C [YHHU-502] | < 100 | –
O=c1ccc(-c2ccc(N3CCCC(O)C3)c(C(F)(F)F)c2)n[nH]1 (stereo not shown) [YHHU-753] | < 100 | –
CN(C)[C@H]1CCN(c2ccc(-c3ccc(=O)[nH]n3)cc2C(F)(F)F)C1 [YHHU-676] | < 10 | –
CCOC(=O)C1CCN(c2ccc(-c3ccc(=O)[nH]n3)cc2C(F)(F)F)CC1 [YHHU-693] | < 100 | –
CN(C)COc1ccc(-c2ccc(=O)[nH]n2)cc1C(F)(F)F [YHHU-501] | < 100 | –
CC(O)C1CCN(c2ccc(-c3ccc(=O)[nH]n3)cc2C(F)(F)F)CC1 (stereo not shown) [YHHU-751] | < 10 | –
O=c1ccc(-c2ccc(NC3CCC(O)CC3)c(C(F)(F)F)c2)n[nH]1 (stereo not shown) [YHHU-711] | < 1000 | –
CN(C)CCN(C)c1ccc(-c2ccc(=O)[nH]n2)cc1C(F)(F)F [YHHU-746] | > 1000 | –
CCOC(=O)C1CCCN1c1ccc(-c2ccc(=O)[nH]n2)cc1C(F)(F)F (stereo not shown) [YHHU-768] | < 100 | –
C[C@@H]1CN(c2ccc(-c3ccc(=O)[nH]n3)cc2C(F)(F)F)CCN1 [YHHU-682] | < 10 | –
O=c1ccc(-c2ccc(N3CC(O)C3)c(C(F)(F)F)c2)n[nH]1 [YHHU-752] | < 100 | –
O=c1ccc(-c2ccc(OCC3CC3)c(C(F)(F)F)c2)n[nH]1 [YHHU-713] | < 1000 | –
O=c1ccc(-c2ccc(N3CCC(O)C3)c(C(F)(F)F)c2)n[nH]1 (stereo not shown) [YHHU-766] | < 100 | –
O=c1ccc(-c2ccc(-n3ccnc3)c(C(F)(F)F)c2)n[nH]1 [YHHU-706] | < 10000 | –
O=C1CCN(c2ccc(-c3ccc(=O)[nH]n3)cc2C(F)(F)F)CC1 [YHHU-672] | < 100 | –
O=c1ccc(-c2ccc(NC3CCCCC3O)c(C(F)(F)F)c2)n[nH]1 (stereo not shown) [YHHU-716] | < 10000 | –
O=C(O)C1CCCN(c2ccc(-c3ccc(=O)[nH]n3)cc2C(F)(F)F)C1 (stereo not shown) [YHHU-765] | < 100 | –
O=c1ccc(-c2ccc(C#Cc3ccc(C(F)(F)F)cc3)c(C(F)(F)F)c2)n[nH]1 [YHHU-702] | < 10000 | –
O=c1ccc(-c2ccc(NC3CCCCC3)c(C(F)(F)F)c2)n[nH]1 [YHHU-757] | – | IC50 (72 hours): < 10 nM
CCSc1ccc(-c2ccc(=O)[nH]n2)cc1C(F)(F)F [YHHU-589] | < 100 | –
O=c1ccc(-c2ccc(NC3CCCCC3)c(C(F)(F)F)c2)n[nH]1 [YHHU-715] | – | IC50 (72 hours): < 10000 nM
O=c1ccc(-c2ccc(N3CCN(CCO)CC3)c(C(F)(F)F)c2)n[nH]1 [YHHU-685] | < 10 | –

Structure (SMILES) | IC50 (Homo sapiens, Bel-7402, 72 h) [nM] | further results
O=c1ccc(-c2ccc(N3CCSC3)c(C(F)(F)F)c2)n[nH]1 [YHHU-670] | < 1000 | –
O=C1CCCN1c1ccc(-c2ccc(=O)[nH]n2)cc1C(F)(F)F [YHHU-667] | < 100 | –
O=c1ccc(-c2ccc(C(F)(F)F)c(C(F)(F)F)c2)n[nH]1 [YHHU-710] | < 10000 | –
O=c1ccc(-c2ccc(OCCN3CC3)c(C(F)(F)F)c2)n[nH]1 [YHHU-771] | – | IC50 (Homo sapiens, 72 hours): < 100 nM
O=c1ccc(-c2ccc(NCCO)c(C(F)(F)F)c2)n[nH]1 [YHHU-760] | > 100 | –
O=c1ccc(-c2ccc(OCCC(F)(F)F)c(C(F)(F)F)c2)n[nH]1 [YHHU-586] | < 100 | –
O=c1ccc(-c2ccc(OC(F)(F)F)c(C(F)(F)F)c2)n[nH]1 [YHHU-707] | < 10000 | –
CN1CCCC(COc2ccc(-c3ccc(=O)[nH]n3)cc2C(F)(F)F)C1 (stereo not shown) [YHHU-590] | < 100 | –
O=c1ccc(-c2ccc(CCN3CCCCC3)c(C(F)(F)F)c2)n[nH]1 [YHHU-575] | < 100 | –
CCOC(=O)CCNc1ccc(-c2ccc(=O)[nH]n2)cc1C(F)(F)F [YHHU-769] | < 1000 | –
O=C1CCC(=O)N1c1ccc(-c2ccc(=O)[nH]n2)cc1C(F)(F)F [YHHU-673] | < 1000 | –
O=c1ccc(-c2ccc(CCN3CCOCC3)c(C(F)(F)F)c2)n[nH]1 [YHHU-585] | < 100 | –
O=c1ccc(-c2ccc(OC34CC5CCC(C3)C(C5)C4)c(C(F)(F)F)c2)n[nH]1 (stereo not shown) [YHHU-592] | < 100 | –
Cc1ccc(-c2ccc(=O)[nH]n2)cc1C(F)(F)F [YHHU-581] | < 100 | –
O=c1ccc(-c2ccc(NCc3ccccc3)c(C(F)(F)F)c2)n[nH]1 [YHHU-659] | < 100 | –
C[C@H]1CN(c2ccc(-c3ccc(=O)[nH]n3)cc2C(F)(F)F)CCN1 [YHHU-675] | < 10 | –
O=c1ccc(-c2ccc(CO)c(C(F)(F)F)c2)n[nH]1 [YHHU-574] | < 100 | –
C[C@@H]1CN(c2ccc(-c3ccc(=O)[nH]n3)cc2C(F)(F)F)C[C@H](C)O1 [YHHU-669] | < 10 | –
CCOC(=O)CSc1ccc(-c2ccc(=O)[nH]n2)cc1C(F)(F)F [YHHU-532] | < 100 | –
COc1ccc(-c2ccc(=O)[nH]n2)cc1C(F)(F)F [YHHU-762] | – | IC50 (72 hours): < 10 nM
O=c1ccc(-c2ccc(OC3CCCC3)c(C(F)(F)F)c2)n[nH]1 [YHHU-503] | < 100 | –
O=c1ccc(-c2ccc(O)c(C(F)(F)F)c2)n[nH]1 [YHHU-580] | < 100 | –
O=C1CSC(=S)N1c1ccc(-c2ccc(=O)[nH]n2)cc1C(F)(F)F [YHHU-668] | < 1000 | –
